Data as given in patent publication US10550110B2, “Tetrahydroquinoline sulfonamide derivatives as inverse agonists of retinoid-related orphan receptor gamma (ROR gamma (t))” (GALDERMA RESEARCH & DEVELOPMENT, priority 2014, dated 2020).

target: T1, ROR gamma ligand-binding domain (LBD) (hRORg) (Homo sapiens, UniProt P51449); test: GAL4-RORγ transactivation (luciferase reporter, HG5LN HeLa line); format: cell-based; details: HG5LN HeLa line with GAL4 DBD fused to ROR gamma LBD, 18 hours incubation
T1 construct: expressed in transfected cells; host or cells: HG5LN (HeLa line with GAL4-responsive luciferase reporter)
T1 sequence (P51449 269-508 limits assumed): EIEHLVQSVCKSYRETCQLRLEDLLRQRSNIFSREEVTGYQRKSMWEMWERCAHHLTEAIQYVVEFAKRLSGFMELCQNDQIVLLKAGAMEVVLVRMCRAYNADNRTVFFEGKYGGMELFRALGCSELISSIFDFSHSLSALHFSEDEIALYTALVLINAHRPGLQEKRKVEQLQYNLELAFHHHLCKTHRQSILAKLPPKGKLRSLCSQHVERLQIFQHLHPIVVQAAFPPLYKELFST
Description: GAL4—RORγ Transactivation
The RORγ transactivation model was developed from the line HG5LN, which is a HeLa line that stably expresses a luciferase reporter gene controlled by a pentamer of the GAL4 recognition domain of yeast and of a β-globin promoter. The HG5LN line was stably transfected by the DNA-binding domain (DBD) of GAL4 fused to the ROR gamma ligand-binding domain (LBD). Molecules that inhibit the ROR gamma constitutive activity reduce the luciferase expression, thus leading to a reduction in the emitted luminescence.
The cells are seeded in 384-well plates (5000 cells in 45 μL/well of culture medium containing 10% fetal calf serum) and incubated for 4 hours at 37° C., 5% CO2. 5 μL of the test molecules (compounds described in the tables described above) are then added to each well and the plates are incubated for 18 hours at a temperature of 37° C. under 5% of CO2. 20 μL of luciferase substrate (Promega) are added to each well and the luminescence emitted is read by a microplate reader.
The luminescence units (“RLU”) are normalized by positive controls (“POS” containing a saturated concentration of N-(2,2,2-trifluoroethyl)-N-[4-[2,2,2-trifluoro-1-hydroxy-1-(trifluoromethyl)ethyl]phenyl])benzenesulfonamide and negative controls (“NEG” containing DMSO): % inhibition=((RLU-NEG)*100)/(POS-NEG). The IC50 values are calculated from a 4-parameter logistic model using the XLFit software (IDBS).

Row | Compound | IC50
1 | CCc1ccc(N(CC(C)C)S(=O)(=O)c2ccc3c(c2)C(O)CCN3C2CCS(=O)(=O)C2)cc1 (stereo not drawn) [Compound 28, 1-(1,1-dioxotetrahydro-1λ^6-thiophen-3-yl)-4-hydroxy-1,2,3,4-tetrahydroquinoline-6-sulfonic acid (4-ethylphenyl)isobutylamide] | 100 to 1000 nM
2 | CCc1ccc(N(CC(C)C)S(=O)(=O)c2ccc3c(c2)C(O)CCN3CC2CCC(=O)N2)cc1 (stereo not drawn) [Compound 9, 4-hydroxy-1-(5-oxopyrrolidin-2-ylmethyl)-1,2,3,4-tetrahydroquinoline-6-sulfonic acid (4-ethylphenyl)isobutylamide] | 100 to 1000 nM
3 | CCc1ccc(N(CC(C)C)S(=O)(=O)c2ccc3c(c2)C(O)CCN3CC2CCS(=O)(=O)CC2)cc1 (stereo not drawn) [Compound 17, 1-(1,1-dioxohexahydro-1λ^6-thiopyran-4-ylmethyl)-4-hydroxy-1,2,3,4-tetrahydroquinoline-6-sulfonic acid (4-ethylphenyl)isobutylamide] | > 1000 nM
4 | CCc1ccc(N(CC(C)C)S(=O)(=O)c2ccc3c(c2)C(=O)CCN3C2CCN(C(C)=O)CC2)cc1 [Compound 60, 1-(1-acetylpiperidin-4-yl)-4-oxo-1,2,3,4-tetrahydroquinoline-6-sulfonic acid (4-ethylphenyl)isobutylamide] | > 1000 nM
5 | CCc1ccc(N(CC(C)C)S(=O)(=O)c2ccc3c(c2)C(O)CCN3C2CCN(S(C)(=O)=O)CC2)cc1 (stereo not drawn) [Compound 64, 4-hydroxy-1-(1-methanesulfonylpiperidin-4-yl)-1,2,3,4-tetrahydroquinoline-6-sulfonic acid (4-ethylphenyl)isobutylamide] | > 1000 nM
6 | CCc1ccc(N(CC(C)C)S(=O)(=O)c2ccc3c(c2)C(O)CCN3C2CCNC(=O)C2)cc1 (single isomer, unassigned) [Compound 52, 4-hydroxy-1-(2-oxopiperidin-4-yl)-1,2,3,4-tetrahydroquinoline-6-sulfonic acid (4-ethylphenyl)isobutylamide] | > 1000 nM
7 | CCc1ccc(N(CC(C)C)S(=O)(=O)c2ccc3c(c2)C(O)CCN3C2CCS(=O)(=O)CC2)cc1 (stereo not drawn) [Compound 27, 1-(1,1-dioxohexahydro-1λ^6-thiopyran-4-yl)-4-hydroxy-1,2,3,4-tetrahydroquinoline-6-sulfonic acid (4-ethylphenyl)isobutylamide] | 100 to 1000 nM
8 | CCc1ccc(N(CC(C)C)S(=O)(=O)c2ccc3c(c2)C(O)CCN3CC2CCC(O)CC2)cc1 (single isomer, unassigned) [Compound 42, 4-hydroxy-1-(4-hydroxycyclohexylmethyl)-1,2,3,4-tetrahydroquinoline-6-sulfonic acid (4-ethylphenyl)isobutylamide] | 100 to 1000 nM
9 | CCc1ccc(N(CC(C)C)S(=O)(=O)c2ccc3c(c2)C(=O)CCN3CC2CCNCC2)cc1 [Compound 54, 4-oxo-1-piperidin-4-ylmethyl-1,2,3,4-tetrahydroquinoline-6-sulfonic acid (4-ethylphenyl)isobutylamide] | > 1000 nM
10 | CCc1ccc(N(CC(C)C)S(=O)(=O)c2ccc3c(c2)C(O)CCN3[C@H](C)C2CCOCC2)cc1 (stereo partly drawn) [Compound 39, 4-hydroxy-1-[(R)-1-(tetrahydropyran-4-yl)ethyl]-1,2,3,4-tetrahydroquinoline-6-sulfonic acid (4-ethylphenyl)isobutylamide] | > 1000 nM
11 | CCc1ccc(N(CC(C)C)S(=O)(=O)c2ccc3c(c2)C(O)CCN3[C@@H](C)C2CCOCC2)cc1 (stereo partly drawn) [Compound 40, 4-hydroxy-1-[(S)-1-(tetrahydropyran-4-yl)ethyl]-1,2,3,4-tetrahydroquinoline-6-sulfonic acid (4-ethylphenyl)isobutylamide] | 100 to 1000 nM
12 | CCc1ccc(N(CC(C)C)S(=O)(=O)c2ccc3c(c2)C(O)CCN3C2CCN(C(C)=O)CC2)cc1 (stereo not drawn) [Compound 61, 1-(1-acetylpiperidin-4-yl)-4-hydroxy-1,2,3,4-tetrahydroquinoline-6-sulfonic acid (4-ethylphenyl)isobutylamide] | > 1000 nM
13 | CCc1ccc(N(CC(C)C)S(=O)(=O)c2ccc3c(c2)C(O)CCN3[C@@H](C)C2CCOCC2)cc1 (stereo partly drawn) [Compound 41, 4-hydroxy-1-[(S)-1-(tetrahydropyran-4-yl)ethyl]-1,2,3,4-tetrahydroquinoline-6-sulfonic acid (4-ethylphenyl)isobutylamide] | 100 to 1000 nM
14 | CCc1ccc(N(CC(C)C)S(=O)(=O)c2ccc3c(c2)C(O)CCN3CC2CCNC(=O)C2)cc1 (stereo not drawn) [Compound 25, 4-hydroxy-1-(2-oxopiperidin-4-ylmethyl)-1,2,3,4-tetrahydroquinoline-6-sulfonic acid (4-ethylphenyl)isobutylamide] | > 1000 nM
15 | CCc1ccc(N(CC(C)C)S(=O)(=O)c2ccc3c(c2)C(O)CCN3CC2CCC(F)(F)CC2)cc1 (stereo not drawn) [Compound 33, 1-(4,4-difluorocyclohexylmethyl)-4-hydroxy-1,2,3,4-tetrahydroquinoline-6-sulfonic acid (4-ethylphenyl)isobutylamide] | > 1000 nM
16 | CCc1ccc(N(CC(C)C)S(=O)(=O)c2ccc3c(c2)C(O)CCN3CC2CCNCC2)cc1 (stereo not drawn) [Compound 56, 4-hydroxy-1-piperidin-4-ylmethyl-1,2,3,4-tetrahydroquinoline-6-sulfonic acid (4-ethylphenyl)isobutylamide] | > 1000 nM
17 | CCc1ccc(N(CC(C)C)S(=O)(=O)c2ccc3c(c2)C(O)CCN3Cc2cnoc2C)cc1 (stereo not drawn) [Compound 30, 4-hydroxy-1-(5-methylisoxazol-4-ylmethyl)-1,2,3,4-tetrahydroquinoline-6-sulfonic acid (4-ethylphenyl)isobutylamide] | 100 to 1000 nM
18 | CCc1ccc(N(CC(C)C)S(=O)(=O)c2ccc3c(c2)C(O)CCN3CC2(O)CCOCC2)cc1 (stereo not drawn) [Compound 16, 4-hydroxy-1-(4-hydroxytetrahydropyran-4-ylmethyl)-1,2,3,4-tetrahydroquinoline-6-sulfonic acid (4-ethylphenyl)isobutylamide] | > 1000 nM
19 | CCc1ccc(N(CC(C)C)S(=O)(=O)c2ccc3c(c2)C(O)CCN3CC2CCN(S(C)(=O)=O)CC2)cc1 (stereo not drawn) [Compound 59, 4-hydroxy-1-(1-methanesulfonylpiperidin-4-ylmethyl)-1,2,3,4-tetrahydroquinoline-6-sulfonic acid (4-ethylphenyl)isobutylamide] | > 1000 nM
20 | CCc1ccc(N(CC(C)C)S(=O)(=O)c2ccc3c(c2)C(O)CCN3CC2CCC(F)(F)C2)cc1 (stereo not drawn) [Compound 34, 1-(3,3-difluorocyclopentylmethyl)-4-hydroxy-1,2,3,4-tetrahydroquinoline-6-sulfonic acid (4-ethylphenyl)isobutylamide] | 100 to 1000 nM
21 | CCc1ccc(N(CC(C)C)S(=O)(=O)c2ccc3c(c2)C(=O)CCN3Cc2ccc(C(=O)NO)cc2)cc1 [Compound 8, 4-{6-[(4-ethylphenyl)isobutylsulfamoyl]-4-oxo-3,4-dihydro-2H-quinolin-1-ylmethyl}-N-hydroxybenzamide] | > 1000 nM
22 | CCc1ccc(N(CC(C)C)S(=O)(=O)c2ccc3c(c2)C(O)CCN3[C@H](C)C2CCOCC2)cc1 (stereo partly drawn) [Compound 38, 4-hydroxy-1-[(R)-1-(tetrahydropyran-4-yl)ethyl]-1,2,3,4-tetrahydroquinoline-6-sulfonic acid (4-ethylphenyl)isobutylamide] | > 1000 nM
23 | CCc1ccc(N(CC(C)C)S(=O)(=O)c2ccc3c(c2)C(O)CCN3CC2CC3(COC3)C2)cc1 (stereo not drawn) [Compound 44, 4-hydroxy-1-(2-oxaspiro[3.3]hept-6-ylmethyl)-1,2,3,4-tetrahydroquinoline-6-sulfonic acid (4-ethylphenyl)isobutylamide] | 100 to 1000 nM
24 | CCc1ccc(N(CC(C)C)S(=O)(=O)c2ccc3c(c2)C(O)CCN3Cc2c(C)noc2C)cc1 (stereo not drawn) [Compound 31, 1-(3,5-dimethylisoxazol-4-ylmethyl)-4-hydroxy-1,2,3,4-tetrahydroquinoline-6-sulfonic acid (4-ethylphenyl)isobutylamide] | 100 to 1000 nM
25 | CCc1ccc(N(CC(C)C)S(=O)(=O)c2ccc3c(c2)C(O)CCN3CC2CCN(C(=O)OC)CC2)cc1 (stereo not drawn) [Compound 51, methyl ester of 4-{6-[(4-ethylphenyl)isobutylsulfamoyl]-4-hydroxy-3,4-dihydro-2H-quinolin-1-ylmethyl}piperidine-1-carboxylic acid] | > 1000 nM
26 | CCc1ccc(N(CC(C)C)S(=O)(=O)c2ccc3c(c2)C(O)CCN3OC2CCOCC2)cc1 (stereo not drawn) [Compound 36, 4-hydroxy-1-(tetrahydropyran-4-yloxy)-1,2,3,4-tetrahydroquinoline-6-sulfonic acid (4-ethylphenyl)isobutylamide] | 100 to 1000 nM
27 | CCc1ccc(N(CC(C)C)S(=O)(=O)c2ccc3c(c2)C(O)CCN3CC2CCC(=O)NC2)cc1 (stereo not drawn) [Compound 24, 4-hydroxy-1-(6-oxopiperidin-3-ylmethyl)-1,2,3,4-tetrahydroquinoline-6-sulfonic acid (4-ethylphenyl)isobutylamide] | 100 to 1000 nM
